Experimental findings from patent US9056835B2, “LPA2 receptor-specific benzoic acid derivatives” (University of Tennessee Research Foundation, priority 2012, dated 2015) are described below.

The subject of assay [1] is vector- and LPA2-transduced MEF cells. The assay can be described thus: Cell proliferation assay. The format is cell-based, mouse. To be noted: LPA 1 μM, OTP 1 μM, GRI977143 10 μM; for cell growth: LPA2-transduced MEF; for cell proliferation: vector-transduced MEF. How it is done:
Mouse embryonic fibroblast (MEF) cells were isolated from E13.5 LPA1&2 double knockout (DKO) embryos. MEFs were transduced with empty vector or LPA2-containing lentiviruses and selected with 1.5 μg/ml puromycin. Cells were maintained in Dulbecco's modified Eagle medium (DMEM) supplemented with 10% (V/V) fetal bovine serum (FBS), 2 mM L-glutamine, 100 U/mL penicillin, and 100 μg/mL streptomycin. Serum-free medium contained 0.1% (W/V) BSA in DMEM. The rat intestinal epithelial cell line 6 (IEC-6) was obtained from the American Type Culture Collection (Rockville, Md.) at passage 13; passages 16-21 were used in all experiments. IEC-6 cells were maintained in a humidified 37° C. incubator in an atmosphere of 90% air and 10% CO2. Growth medium consisted of DMEM supplemented with 5% heat inactivated FBS, 10 μg/mL insulin, and 50 μg/mL gentamycin. The composition of the serum-starvation medium was the same as that of the full growth medium except that it contained no FBS. The McArdle rat hepatoma cell line (RH7777) stably expressing LPA2 receptors was a gift from Dr. Fumikazu Okajima (Gunma University, Maebashi, Japan). RH7777 cells stably expressing LPA1 or LPA3 receptors were generated in-house and had been characterized earlier. Wild type and LPA receptor (LPAR) stably transfected RH7777 cells were grown in DMEM supplemented with 10% FBS and 2 mM L-glutamine in the presence of 250 μg/ml G418. Chinese hamster ovary (CHO) cells stably expressing either vector or LPA4 receptor were a kind gift from Dr. Takao Shimizu (Tokyo University; Tokyo, Japan). Cells were cultured in Ham's F12 medium containing 10% FBS, 2 mM L-glutamine, and 350 μg/ml G418. Rat neuroblastoma cells (B103) were transduced with the lentivirus harboring wild type of FLAG-LPA5 and selected with puromycin to establish the stable cell lines. The stable cells were maintained in DMEM supplemented with 10% FBS and 0.4 μg/ml puromycin. GPR87- and P2Y10-expressing CHO cells and vector-transfected control cells were a gift from Dr. Norihisha Fujita (Ritsumeikan University; Shiga, Japan). The highly invasive MM1 rat hepatoma cells (gift from Dr. Michiko Mukai, Osaka University, Japan) were grown in suspension in DMEM supplemented with 10% (V/V) FBS, 2 mM L-glutamine, 100 U/mL penicillin, and 100 μg/mL streptomycin. Human umbilical vein endothelial cells (HUVEC) were purchased from VEC Technologies Inc. (Rensselaer, N.Y., USA) and cultured in MCDB-131 complete medium supplemented with 10% (V/V) FBS, 90 μg/mL heparin, 10 ng/mL EGF, 1 μg/mL hydrocortisone, 0.2 mg/mL EndoGrowth (VEC Technologies Inc.) supplement, 100 U/mL penicillin G, 100 μg/mL streptomycin, and 25 μg/mL amphotericin B.
For determination of the effect of the LPA receptor ligands on cell growth, vector- and LPA2-transduced MEF cells (2×10^4) were plated in each well of a 24-well plate in full growth medium. Cells were counted the next day and the medium was replaced with medium containing 1.5% (V/V) FBS supplemented with or without 1 μM LPA, 1 μM OTP, or 10 μM GRI977143. Media containing LPA, OTP, and GRI977143 were refreshed every 24 h. The growth rate was measured by counting the number of cells in triplicate using the Z1 Coulter Particle Counter (Beckman Coulter; Hileah, Fla.) as a function of time.

In the next assay the test system is MM1 hepatoma cells. The experiment in a line: MM1 hepatoma cell invasion of endothelial monolayer. To be noted: LPA 1 μM, GRI977143 10 μM, 20 h. Format: cell-based, rat. Here is the method:
Mouse embryonic fibroblast (MEF) cells were isolated from E13.5 LPA1&2 double knockout (DKO) embryos. MEFs were transduced with empty vector or LPA2-containing lentiviruses and selected with 1.5 μg/ml puromycin. Cells were maintained in Dulbecco's modified Eagle medium (DMEM) supplemented with 10% (V/V) fetal bovine serum (FBS), 2 mM L-glutamine, 100 U/mL penicillin, and 100 μg/mL streptomycin. Serum-free medium contained 0.1% (W/V) BSA in DMEM. The rat intestinal epithelial cell line 6 (IEC-6) was obtained from the American Type Culture Collection (Rockville, Md.) at passage 13; passages 16-21 were used in all experiments. IEC-6 cells were maintained in a humidified 37° C. incubator in an atmosphere of 90% air and 10% CO2. Growth medium consisted of DMEM supplemented with 5% heat inactivated FBS, 10 μg/mL insulin, and 50 μg/mL gentamycin. […]
HUVEC (1.3×10^5 cells at passages 5 to 7) were seeded into each well of a 12-well plate pre-coated with 0.2% gelatin (Sigma-Aldrich). […] Tumor cells that penetrated the monolayer were photographed using a NIKON TiU inverted microscope with phase-contrast and fluorescence illumination. […] A total of five non-overlapping fields was imaged per well, and the number of invaded MM1 cells (displaying a flattened morphology underneath the monolayer) was counted.

The target in a further assay is T1, LPA2, TRIP6 and NHERF2 (Homo sapiens, UniProt Q9HBW0).
T1 construct: expressed in transfected cells; host or cells: HEK293T, transient co-transfection
T1 sequence (Q9HBW0 whole entry): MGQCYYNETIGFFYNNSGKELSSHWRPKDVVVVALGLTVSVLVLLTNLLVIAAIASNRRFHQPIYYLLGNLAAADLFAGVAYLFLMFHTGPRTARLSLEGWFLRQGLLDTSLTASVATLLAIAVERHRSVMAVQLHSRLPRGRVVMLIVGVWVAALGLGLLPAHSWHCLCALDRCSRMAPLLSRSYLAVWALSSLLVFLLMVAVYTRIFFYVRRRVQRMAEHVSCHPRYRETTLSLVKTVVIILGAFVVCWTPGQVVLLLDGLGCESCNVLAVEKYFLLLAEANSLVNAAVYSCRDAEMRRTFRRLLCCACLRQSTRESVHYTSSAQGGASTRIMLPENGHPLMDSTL
T1 sequence (Q15599 whole entry partner): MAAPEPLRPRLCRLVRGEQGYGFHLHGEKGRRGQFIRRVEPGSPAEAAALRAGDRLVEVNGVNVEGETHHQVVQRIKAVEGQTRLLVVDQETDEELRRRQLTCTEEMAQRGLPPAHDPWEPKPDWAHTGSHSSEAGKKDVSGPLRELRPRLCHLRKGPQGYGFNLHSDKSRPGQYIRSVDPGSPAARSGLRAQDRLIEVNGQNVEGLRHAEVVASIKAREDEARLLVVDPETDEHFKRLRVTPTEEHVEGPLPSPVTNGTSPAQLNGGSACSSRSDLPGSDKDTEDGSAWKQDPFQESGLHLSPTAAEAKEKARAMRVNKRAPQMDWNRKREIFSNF
T1 sequence (Q15654 whole entry partner): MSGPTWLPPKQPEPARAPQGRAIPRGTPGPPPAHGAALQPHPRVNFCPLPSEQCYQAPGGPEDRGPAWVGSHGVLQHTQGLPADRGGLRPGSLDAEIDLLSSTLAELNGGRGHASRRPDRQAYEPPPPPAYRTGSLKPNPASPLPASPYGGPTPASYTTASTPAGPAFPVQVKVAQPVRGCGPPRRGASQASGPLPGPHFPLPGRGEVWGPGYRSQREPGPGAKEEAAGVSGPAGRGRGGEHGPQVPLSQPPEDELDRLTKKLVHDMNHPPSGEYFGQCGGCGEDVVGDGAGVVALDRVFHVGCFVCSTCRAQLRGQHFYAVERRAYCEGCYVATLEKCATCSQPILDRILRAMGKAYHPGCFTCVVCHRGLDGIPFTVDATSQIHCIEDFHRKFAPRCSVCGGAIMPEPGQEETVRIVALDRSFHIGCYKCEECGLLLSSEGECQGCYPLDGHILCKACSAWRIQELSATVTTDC
The experiment in a line: Ligand-induced macromolecular complex formation with LPA2. Format: cell-based. To be noted: HEK293T, FLAG-LPA2 and EGFP-NHERF2, 10 μM, 10 min. The text has this: LPA2 forms a ternary complex with TRIP6 and NHERF2. This complex is assembled via multiple protein-protein interactions that include: binding of NHERF2 to the C-terminal PSD95/Dlg/ZO-1 domain (PDZ)-binding motif of LPA2, the binding of TRIP6 to the Zinc-finger-like CxxC motif of LPA2, and binding of NHERF2 to the PDZ-binding motif of TRIP6. To examine ligand-induced macromolecular complex formation, HEK293T cells were transfected with FLAG-LPA2 and enhanced green fluorescent protein (EGFP)-NHERF2, and the cells were exposed to 10 μM GRI977143 for 10 min as described in detail in our previous publication (E et al., The LPA2 receptor-mediated supramolecular complex formation regulates its antiapoptotic effect. J Biol Chem (2009) 284: 14558-14571). The complex was pulled down using anti-FLAG M2 monoclonal antibody-conjugated agarose beads (Sigma-Aldrich) and processed for western blotting using anti-EGFP (gift from Dr. A. P. Naren; UTHSC, TN), anti-FLAG (Sigma-Aldrich), and anti-TRIP6 (Bethyl Laboratories; Montgomery, Tex.) antibodies.

With `CCCCCCCC/C=C\CCCCCCCC(=O)OC[C@@H](O)COP(=O)(O)O` [LPA 18:1, Lysophosphatidic acid (18:1)], in assay [1], the cell growth result is given as “significant from 24 hours onwards” and the cell proliferation result is listed as “no significant effect”. For the same compound, in the assay on MM1 hepatoma cells, the “MM1 cell invasion of HUVEC monolayers” value is given as “significant increase”.

As for `O=C(O)c1ccccc1SCCCN1C(=O)c2cccc3cccc(c23)C1=O` [GRI977143], in assay [1], the cell growth entry was “significant from 24 hours onwards” and the cell proliferation entry is reported as “did not cause a significant increase in vector cell proliferation except at 72 hours”. For the same compound, the “MM1 cell invasion of HUVEC monolayers” value in the assay on MM1 hepatoma cells is reported as “significant increase”. At LPA2, TRIP6 and NHERF2, the “assembly of macromolecular complex LPA2-TRIP6-NHERF2” value is “elicited the assembly of the signaling complex”.

Turning to octadecenyl thiophosphate [OTP], in assay [1], the cell growth entry is given as “significant from 24 hours onwards” and the cell proliferation entry is listed as “significantly (p<0.001) increased”.
